Data set [1] in a line: Adverse effects of amitriptyline in healthy volunteers (visual analogue scales, pupillometry). The data set is classed as in vivo, human. How it is done:
After overnight fasting, a single dose of 25 mg […] dura GmbH, Darmstadt, Germany) was orally administered to each subject. […] For the study in healthy volunteers, the primary endpoints were the AUCs of plasma AT and NT concentrations. Secondary endpoints were the other pharmacokinetic parameters of AT and NT, as well as heart rate, blood pressure, pupil size effects, and possible adverse events (headache, fatigue, visual or hearing impairments, restlessness, nausea, dizziness, dry mouth, tremor, as well as sensations of hypothermia and heart palpitations determined using a visual analogue scale test). Pharmacokinetic parameters were calculated by non-compartmental analysis using Phoenix 64 WinNonlin version 6.3 (Certara Inc., Princeton, NJ, United States). AUCinf of AT was calculated from the time of dosing using the linear/log trapezoidal rule and extrapolated to infinity based on the last predicted concentration and using the terminal elimination rate constant (lambda z). AUC of NT was calculated from the time of dosing until the last measurement at 48 h using the linear/log trapezoidal rule, as a decline in NT concentrations was not observed in some subjects and extrapolation to infinity thus not possible.

The conditions of data set [2]: no reference given, cited from earlier work.
Details of data set [3]: method as in Hardman et al., 2001. Particulars: ref Hardman et al., 2001; cited from earlier work.

For the compound `CN(C)CCC=C1c2ccccc2CCc2ccccc21` [Amitriptyline, amitriptyline], the serious adverse events result in data set [1] (healthy volunteers, single oral 25 mg AT, entire study) is reported as “no serious adverse events occurred”. For the same compound, the tolerability entry in data set [1] (healthy volunteers, single oral 25 mg AT, no placebo control) is reported as “generally well-tolerated”. Moreover, the “time- and concentration-related adverse effects (dry mouth, visual or hearing impairment, restlessness, headache, nausea, dizziness, sensation of cold) and anticholinergic effects by pupillometry” value in data set [1] (visual analogue scales and pupillometry, 25 mg AT dose) is “not observed”. The “time of peak fatigue symptoms after administration” value in data set [1] (visual analogue scales, healthy volunteers, 25 mg AT, no placebo control) came to 3 h. Besides, in data set [2] (at physiological pH), the positively charged fraction entry is “approximately 99%”. Further, the logD7.4 in data set [2] (pH 7.4) was 3. For the same compound, the plasma protein binding in data set [3] was 95%.
